From ChEMBL document CHEMBL1201862, “PubChem BioAssay data set” (2004)
Activity calls are given as the source filed them.

How the values were obtained:
[1] = target: T1, Methionyl-tRNA synthetase, putative (Trypanosoma brucei brucei, UniProt Q38C91); assay type: functional, Trypanosoma brucei brucei strain 927/4 GUTat10.1
[2] = Counterscreen for inhibitors of Trypanosoma brucei methionyl tRNA synthetase (MetRS): Luminescence-based cell-based high throughput dose response assay to identify compounds that are cytotoxic to Jurkat human T lymphocyte cells.; assay type: functional
[3] = target: T1, Methionyl-tRNA synthetase, putative; assay type: functional, Trypanosoma brucei brucei strain 927/4 GUTat10.1; remark: listed apart in the source
[4] = reduction of Shn3 3'UTR-driven luciferase in osteoblasts – cell-based, Clone20 osteoblasts, firefly luciferase, cherry-picked, dose response (AID 624132); assay type: functional;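 further: firefly luciferase luminescence from reporter carrying the Shn3 3'UTR in osteoblasts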
[5] = non-specific 3'UTR reporter inhibition in Clone20-Shn3RL – cell-based, Renilla luciferase, cherry-picked, counter-screen for Shn3 inhibitor project, dose response (AID 624133); assay type: functional
[6] = target: COUP transcription factor 2 (Homo sapiens, UniProt P24468); assay: Luminescence-based cell-based high throughput dose response assay to identify inhibitors of COUP-TFII (NR2F2).; assay type: functional;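 further: HEK293 cells transiently cotransfected with COUP-TFII expression vector and reporter; luciferase reporter luminescence driven by COUP-TFII from the pX2-168 reporter plasmid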
Chain of COUP transcription factor 2 (P24468 whole entry): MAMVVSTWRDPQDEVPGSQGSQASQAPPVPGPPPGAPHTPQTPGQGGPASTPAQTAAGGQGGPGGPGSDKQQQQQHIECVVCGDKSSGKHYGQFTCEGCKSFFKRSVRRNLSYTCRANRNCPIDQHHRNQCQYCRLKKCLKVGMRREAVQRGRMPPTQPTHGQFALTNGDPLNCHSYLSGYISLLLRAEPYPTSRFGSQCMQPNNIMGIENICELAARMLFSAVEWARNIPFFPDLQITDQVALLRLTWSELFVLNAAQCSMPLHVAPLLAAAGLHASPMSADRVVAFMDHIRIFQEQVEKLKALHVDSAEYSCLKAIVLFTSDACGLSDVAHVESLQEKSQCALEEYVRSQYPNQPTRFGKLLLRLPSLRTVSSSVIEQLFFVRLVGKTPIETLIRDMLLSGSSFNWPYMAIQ

[7] = tested on: INS1; assay: INS-1E survival protection against cytokine death – cell-based, luminescence, retest, dose response (AID 449756); assay type: functional; settings: Rattus norvegicus;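 further: cell death triggered by IL-1 beta plus TNF-alpha plus IFN-gamma mixture; protective hits raise ATP signal compared with cytokine alone wells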
[8] = loss of viability in HepG2 cells – cell-based, CellTiter-Glo, cherry-picked, cytotoxicity control for Shn3 inhibitor project, dose response (AID 624134); assay type: functional
[9] = target: Protein Wnt-3a (Mus musculus, UniProt P27467); assay: antagonism of Wnt3a pathway luciferase reporter – Wnt-LIGHT cells, luminescence, selectivity assay for Gli-SUFU antagonist project, dose response (AID 651570); assay type: functional; settings: read-out: IC50_Mean;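 further: Wnt-LIGHT reporter cells stimulated with conditioned medium from Wnt3a-producing cells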
Chain of Protein Wnt-3a (P27467 whole entry, the tested form may be a part): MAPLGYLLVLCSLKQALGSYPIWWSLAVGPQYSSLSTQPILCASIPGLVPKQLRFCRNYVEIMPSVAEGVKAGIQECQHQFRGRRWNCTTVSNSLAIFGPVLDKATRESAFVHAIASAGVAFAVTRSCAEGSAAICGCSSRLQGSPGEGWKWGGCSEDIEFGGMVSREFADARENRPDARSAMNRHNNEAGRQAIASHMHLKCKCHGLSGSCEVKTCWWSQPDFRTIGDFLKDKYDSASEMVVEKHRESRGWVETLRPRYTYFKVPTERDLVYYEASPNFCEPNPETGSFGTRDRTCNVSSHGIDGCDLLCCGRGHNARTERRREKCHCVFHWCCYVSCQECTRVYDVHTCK

[10] = target: T2, Sentrin-specific protease 1 (Homo sapiens, UniProt Q9P0U3); assay: SENP1 catalytic domain blockers, concentration series – biochemical, kinetic FRET, dose response (AID 651697); assay type: functional; settings: read-out: IC50_Mean
T2 sequence (Q9P0U3 whole entry, the tested form may be a part): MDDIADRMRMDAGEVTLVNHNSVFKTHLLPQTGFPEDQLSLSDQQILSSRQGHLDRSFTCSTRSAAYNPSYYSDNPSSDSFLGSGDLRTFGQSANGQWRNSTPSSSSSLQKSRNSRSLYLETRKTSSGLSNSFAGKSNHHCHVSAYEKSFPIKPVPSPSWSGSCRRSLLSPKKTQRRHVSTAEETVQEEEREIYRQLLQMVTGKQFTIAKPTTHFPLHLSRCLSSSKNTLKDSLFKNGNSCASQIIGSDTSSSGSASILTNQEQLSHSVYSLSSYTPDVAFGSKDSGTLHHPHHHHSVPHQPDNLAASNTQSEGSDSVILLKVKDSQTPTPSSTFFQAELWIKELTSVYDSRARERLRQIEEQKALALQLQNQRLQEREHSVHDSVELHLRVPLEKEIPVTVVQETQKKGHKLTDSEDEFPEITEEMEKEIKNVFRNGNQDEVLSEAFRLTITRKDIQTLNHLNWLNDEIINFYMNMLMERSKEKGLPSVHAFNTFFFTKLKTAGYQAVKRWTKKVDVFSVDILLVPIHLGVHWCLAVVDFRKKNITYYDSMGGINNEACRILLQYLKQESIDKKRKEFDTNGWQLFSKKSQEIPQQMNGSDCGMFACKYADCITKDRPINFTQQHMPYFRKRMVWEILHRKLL

[11] = target: T3, RNA-binding protein pos-1 (Caenorhabditis elegans, UniProt G5EF15); assay: disruptors of C. elegans POS-1 RNA interaction – biochemical, fluorescence polarization, dose response (AID 1964);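 further: purified POS-1 fused to maltose binding protein made in E. coli; potency of compounds blocking POS-1 binding to fluorescent RNA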
T3 sequence (G5EF15 whole entry): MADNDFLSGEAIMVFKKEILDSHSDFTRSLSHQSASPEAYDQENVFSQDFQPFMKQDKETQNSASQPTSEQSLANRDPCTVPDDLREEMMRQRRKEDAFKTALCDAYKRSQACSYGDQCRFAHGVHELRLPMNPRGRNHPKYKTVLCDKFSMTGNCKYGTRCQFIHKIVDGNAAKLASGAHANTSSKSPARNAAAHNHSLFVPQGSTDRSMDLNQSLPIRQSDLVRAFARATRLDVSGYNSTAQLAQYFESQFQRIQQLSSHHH

[12] = target: T4, Zinc finger protein mex-5 (Caenorhabditis elegans, UniProt Q9XUB2); assay: potency of MEX-5 RNA-binding blockers – biochemical, C. elegans, fluorescence polarization, dose response (AID 1960)
T4 sequence (Q9XUB2 whole entry): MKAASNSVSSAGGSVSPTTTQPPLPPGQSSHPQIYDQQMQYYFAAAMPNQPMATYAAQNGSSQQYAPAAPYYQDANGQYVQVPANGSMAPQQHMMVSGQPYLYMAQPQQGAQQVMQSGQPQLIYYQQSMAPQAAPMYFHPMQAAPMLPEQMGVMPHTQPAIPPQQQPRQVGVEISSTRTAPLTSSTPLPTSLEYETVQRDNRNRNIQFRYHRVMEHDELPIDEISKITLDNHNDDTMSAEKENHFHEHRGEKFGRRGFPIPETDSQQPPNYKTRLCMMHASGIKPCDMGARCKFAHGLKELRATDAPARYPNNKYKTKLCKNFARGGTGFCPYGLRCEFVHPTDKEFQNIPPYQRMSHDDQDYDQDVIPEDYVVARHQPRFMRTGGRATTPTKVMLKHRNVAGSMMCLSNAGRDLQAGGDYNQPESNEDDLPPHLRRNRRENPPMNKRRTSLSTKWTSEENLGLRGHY

[13] = target: T2, Sentrin-specific protease 1; assay: Dose response confirmation of small molecule inhibitors of the catalytic domain of the SUMO protease, SENP1 in a FRET assay.; assay type: functional; settings: read-out: IC50_Mean
[14] = target: Mitochondrial peptide methionine sulfoxide reductase (Bos taurus, UniProt P54149); assay type: functional;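 further: absorbance read-out, biochemical high-throughput dose-response screen for MsrA inhibitors, confirmatory; recombinant bovine MsrA coupled to E. coli TrxB with NADPH and selenocystamine; potency is for inhibitors of MsrA activity on DMSO substrate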
Chain of Mitochondrial peptide methionine sulfoxide reductase (P54149 whole entry): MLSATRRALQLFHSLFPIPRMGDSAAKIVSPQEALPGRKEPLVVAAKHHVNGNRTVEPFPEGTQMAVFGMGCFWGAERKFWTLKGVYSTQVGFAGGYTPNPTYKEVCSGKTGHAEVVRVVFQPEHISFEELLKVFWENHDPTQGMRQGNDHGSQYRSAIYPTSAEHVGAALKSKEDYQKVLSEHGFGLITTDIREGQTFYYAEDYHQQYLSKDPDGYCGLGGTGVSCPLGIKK

[15] = target: Long-chain-fatty-acid--AMP ligase FadD28 (Mycobacterium tuberculosis, UniProt P9WQ59); assay: Fluorescence polarization aasay to screen for inhibitors that compete for the binding of FadD28 to a bisubstrate Measured in Biochemical System Using Plate Reader - 2147-01_Inhibitor_Dose_CherryPick_Activity.; assay type: functional, Mycobacterium tuberculosis H37Rv
Chain of Long-chain-fatty-acid--AMP ligase FadD28 (P9WQ59 whole entry): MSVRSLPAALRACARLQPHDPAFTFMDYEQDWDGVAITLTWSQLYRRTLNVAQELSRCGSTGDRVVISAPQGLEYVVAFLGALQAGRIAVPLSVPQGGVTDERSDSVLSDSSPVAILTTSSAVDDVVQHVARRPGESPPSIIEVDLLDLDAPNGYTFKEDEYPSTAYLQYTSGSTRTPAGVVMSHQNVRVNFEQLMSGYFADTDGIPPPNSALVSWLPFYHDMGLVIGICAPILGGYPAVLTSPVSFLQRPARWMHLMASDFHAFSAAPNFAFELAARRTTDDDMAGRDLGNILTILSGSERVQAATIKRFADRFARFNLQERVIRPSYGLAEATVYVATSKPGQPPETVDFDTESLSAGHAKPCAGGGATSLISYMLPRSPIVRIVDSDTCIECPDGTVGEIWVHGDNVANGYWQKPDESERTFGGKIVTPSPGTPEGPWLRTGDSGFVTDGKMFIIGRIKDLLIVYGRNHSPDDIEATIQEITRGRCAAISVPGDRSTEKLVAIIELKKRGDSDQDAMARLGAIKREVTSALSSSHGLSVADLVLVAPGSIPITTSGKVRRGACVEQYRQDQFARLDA

[16] = intracellular Trypanosoma cruzi inhibitors in host cells – cell-based, plate reader, cherry-pick samples, set 3, dose response (AID 651818); assay type: functional;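 further: compounds incubated with infected cells for about four days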
[17] = tested on: A549; assay: viability loss in A549 cells – cell-based, plate reader, cherry-pick samples, cytotoxicity control, dose response (AID 687028); assay type: functional; settings: Homo sapiens
[18] = activation of miR-122 Renilla sensor silencing – cell-based, Huh7 psiCHECK-miR122, Renilla luciferase, cherry-picked, dose response (AID 651956); assay type: functional;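 further: huh7 hepatoma cells stably carrying a psiCHECK-2 miR-122 sensor plasmid; renilla luciferase signal reporting endogenous miR-122 activity after 48 h compound exposure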
[19] = general mammalian cell viability loss – inhibitor set, cherry-pick, set 2, cytotoxicity control for miR-122 modulator project, dose response (AID 720697); assay type: functional, cell-based
[20] = tested on: Streptococcus; assay: GAS UMAA2166 growth inhibition – luminescence, BacTiterGlo, counter-screen for streptokinase expression inhibitor project, dose response (AID 1915); assay type: functional, organism-based;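 further: potency for reduction of bacterial viability or growth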
[21] = tested on: Streptococcus sp. 'group A'; assay: Streptococcus pyogenes SK(-)GAS viability under kanamycin – luminescence, BacTiterGlo, confirmation, counter-screen for streptokinase expression inhibitor project, dose response (AID 1900); assay type: functional, organism-based
[22] = target: T5, Nuclear receptor subfamily 0 group B member 1 (Homo sapiens, UniProt P51843); assay type: functional, cell-based;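 further: HEK293T cells transfected with SF-1 and DAX-1 plus StAR promoter luciferase reporter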
T5 sequence (P51843 whole entry): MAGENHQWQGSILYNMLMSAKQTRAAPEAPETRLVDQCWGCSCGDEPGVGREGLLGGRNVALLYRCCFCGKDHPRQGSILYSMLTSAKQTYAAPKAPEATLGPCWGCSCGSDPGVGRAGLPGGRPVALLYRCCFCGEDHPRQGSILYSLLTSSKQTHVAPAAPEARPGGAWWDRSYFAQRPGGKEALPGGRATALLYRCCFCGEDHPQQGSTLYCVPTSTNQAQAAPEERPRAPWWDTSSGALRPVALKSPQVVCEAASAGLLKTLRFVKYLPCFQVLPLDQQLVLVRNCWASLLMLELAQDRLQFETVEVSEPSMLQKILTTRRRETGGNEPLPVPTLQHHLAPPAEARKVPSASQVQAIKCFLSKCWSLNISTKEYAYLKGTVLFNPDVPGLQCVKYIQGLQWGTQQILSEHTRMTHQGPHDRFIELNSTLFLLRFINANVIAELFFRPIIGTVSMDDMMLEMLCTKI

[23] = blockade of melanocortin 4 receptor signaling – cell-based, plate reader, cherry pick, counter-screen for LGR2 antagonist project, dose response (AID 743444); assay type: functional;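 further: transfected HEK 293 cells stimulated with alpha-MSH peptide; potency of inhibitors of the alpha-MSH evoked signal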
[24] = cells; assay type: functional, cell-based
[25] = A549 cell cytotoxicity, dose response, cytotoxicity control, plate reader, cherry-pick, antagonist series (AID 743412); assay type: functional, cell-based
[26] = toxicity toward HepG2 liver cells – cell-based, plate reader, cherry-pick, antagonist series, cytotoxicity control, dose response (AID 743416); assay type: functional
[27] = target: Latent membrane protein 1 (Human herpesvirus 4 (strain B95-8), UniProt P03230); assay: LMP1 TES1 pathway selectivity over dsRED control – imaging, HEK293T, dual-color eGFP/dsRED, cherry-picks, selectivity assay for LMP1 NF-kB inhibitor project, dose response (AID 588398); assay type: functional, cell-based
Chain of Latent membrane protein 1 (P03230 whole entry): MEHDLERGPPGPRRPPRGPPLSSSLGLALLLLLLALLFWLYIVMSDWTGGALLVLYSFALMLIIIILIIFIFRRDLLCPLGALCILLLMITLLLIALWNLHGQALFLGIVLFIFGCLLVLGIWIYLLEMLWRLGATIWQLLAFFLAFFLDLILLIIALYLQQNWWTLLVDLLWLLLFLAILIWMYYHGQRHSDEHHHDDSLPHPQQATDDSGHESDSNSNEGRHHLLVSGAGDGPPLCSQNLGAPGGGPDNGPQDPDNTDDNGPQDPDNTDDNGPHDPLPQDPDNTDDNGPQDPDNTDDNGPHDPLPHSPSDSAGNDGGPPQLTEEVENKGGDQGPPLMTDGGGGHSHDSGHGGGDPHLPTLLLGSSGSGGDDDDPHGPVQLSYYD

[28] = viability loss in HEK293 cells – cell-based, plate reader, cherry-picked samples, cytotoxicity control, dose response (AID 743446); assay type: functional
[29] = tested on: HEK293; assay: EBV LMP1 TES2 canonical NF-kB signalling blockers – cell-based, HEK293, luciferase, cherry-pick, dose response (AID 588343); assay type: functional; settings: Homo sapiens
[30] = blockers of bursicon-stimulated LGR2 cAMP reporter – cell-based, HEK293, CRE-luciferase reporter, cherry pick, set 2, dose response (AID 743343); assay type: functional;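 further: transfected cells were stimulated with diluted bursicon conditioned medium after compound addition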

T1 sequence (Q38C91 whole entry): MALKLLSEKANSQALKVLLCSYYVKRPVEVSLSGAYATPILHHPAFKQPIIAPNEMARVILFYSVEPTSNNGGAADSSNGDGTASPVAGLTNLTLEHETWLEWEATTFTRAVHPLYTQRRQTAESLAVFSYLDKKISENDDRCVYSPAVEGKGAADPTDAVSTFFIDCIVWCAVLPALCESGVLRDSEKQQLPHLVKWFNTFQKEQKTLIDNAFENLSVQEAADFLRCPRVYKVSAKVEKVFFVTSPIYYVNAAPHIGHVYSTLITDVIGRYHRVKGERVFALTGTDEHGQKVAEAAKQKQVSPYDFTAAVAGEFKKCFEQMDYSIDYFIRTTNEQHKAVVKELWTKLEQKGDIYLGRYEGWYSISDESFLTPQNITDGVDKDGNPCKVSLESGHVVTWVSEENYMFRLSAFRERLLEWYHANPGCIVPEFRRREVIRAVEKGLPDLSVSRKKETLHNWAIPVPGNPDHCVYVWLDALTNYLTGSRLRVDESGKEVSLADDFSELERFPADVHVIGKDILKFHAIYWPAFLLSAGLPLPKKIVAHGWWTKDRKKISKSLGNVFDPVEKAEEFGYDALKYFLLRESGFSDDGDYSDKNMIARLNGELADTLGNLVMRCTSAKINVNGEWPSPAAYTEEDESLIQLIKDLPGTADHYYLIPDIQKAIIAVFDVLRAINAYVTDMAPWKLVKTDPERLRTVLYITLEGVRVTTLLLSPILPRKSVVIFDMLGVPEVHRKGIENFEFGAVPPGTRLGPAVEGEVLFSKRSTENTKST

COC(=O)CN1C(=S)N(c2ccc(Cl)cc2)C(=O)C1CC(=O)Nc1ccc(Cl)cc1 (stereo not given)
IC50 [1]: 13.7 µM (inactive) | IC50 [2]: 83.3 µM (inactive) | IC50 [3]: 19.7 µM (inactive)

COc1ccc(CCNc2ncnc3c2oc2ccccc23)cc1OC
AC50 [4]: 0.524 µM (active) | AC50 [5]: 1.89 µM (active) | IC50 [6]: 5.03 µM (active) | AC50 [7]: 1.78 µM (active) | AC50 [8]: 3.79 µM (active) | IC50 [9]: 1.07 µM (active)

Cc1cccc(-c2c3c(=O)n(C)c(=O)n(C)c3c3cccnn23)c1
IC50 [10]: 27 µM (inactive) | EC50 [11]: 83.8 µM (active) | EC50 [12]: 87.6 µM (active) | IC50 [13]: 11.3 µM (active)

COc1cc(C2C(C(=O)c3sc(C)nc3C)=C(O)C(=O)N2CCN(C)C)cc(OC)c1OC (stereo not given)
IC50 [14]: 155 µM (inactive)

O=C(N/N=C/c1c[nH]c2ccccc12)c1cc(Br)ccc1O
AC50 [15]: 7.18 µM (active)

COc1ccc(NC(=O)Nc2ccc3c(c2)CC(=O)N([C@H](C)CO)C[C@H](C)[C@H](CN(C)Cc2ccc(C(=O)Nc4ccccc4N)cc2)O3)cc1
AC50 [16]: 4.17 µM (active)

Cc1cccc(OCC(=O)NNC(=O)C2CCCCC2C(=O)O)c1 (stereo not given)
AC50 [17]: 26.4 µM (active)

C[C@@H]1CN([C@@H](C)CO)S(=O)(=O)c2ccc(C#Cc3ccncc3)cc2O[C@@H]1CN(C)C(=O)Nc1ccc2c(c1)OCO2
AC50 [18]: 6.9 µM (active) | AC50 [19]: 10.7 µM (active)

COc1ccc(-c2cc3nc4n(c(=O)c3s2)CCC4)cc1
EC50 [20]: 2.48 µM (active) | EC50 [21]: 0.706 µM (active) | IC50 [22]: > 0.278 µM (active) | AC50 [23]: 2.65 µM (active) | IC50 [24]: > 67.5 µM (inactive) | AC50 [25]: > 52 µM (inactive) | AC50 [26]: > 52 µM (inactive) | AC50 [27]: 28 µM (active) | AC50 [28]: 36.4 µM (active) | AC50 [29]: 1.48 µM (active) | AC50 [30]: 2.53 µM (active)
